ChEMBL document CHEMBL4342498, “Design and Discovery of an Orally Efficacious Spiroindolinone-Based Tankyrase Inhibitor for the Treatment of Colon Cancer” (J Med Chem, 2020)

What was measured:
[1] = molecular target: T1, Poly [ADP-ribose] polymerase tankyrase-2 (Homo sapiens, UniProt Q9H2K2); assay: Inhibition of recombinant human N-terminal TEV cleavage site-fused/FLAG-poly his-tagged TNKS2 ARC5-SAM-PARP domain (613 to 1166 residues) expressed in Escherichia coli assessed as reduction in auto-PARylation preincubated for 10 mins followed by biotinylated-NAD+ addition and measured after 45 mins by ELISA
T1 sequence (Q9H2K2 whole entry): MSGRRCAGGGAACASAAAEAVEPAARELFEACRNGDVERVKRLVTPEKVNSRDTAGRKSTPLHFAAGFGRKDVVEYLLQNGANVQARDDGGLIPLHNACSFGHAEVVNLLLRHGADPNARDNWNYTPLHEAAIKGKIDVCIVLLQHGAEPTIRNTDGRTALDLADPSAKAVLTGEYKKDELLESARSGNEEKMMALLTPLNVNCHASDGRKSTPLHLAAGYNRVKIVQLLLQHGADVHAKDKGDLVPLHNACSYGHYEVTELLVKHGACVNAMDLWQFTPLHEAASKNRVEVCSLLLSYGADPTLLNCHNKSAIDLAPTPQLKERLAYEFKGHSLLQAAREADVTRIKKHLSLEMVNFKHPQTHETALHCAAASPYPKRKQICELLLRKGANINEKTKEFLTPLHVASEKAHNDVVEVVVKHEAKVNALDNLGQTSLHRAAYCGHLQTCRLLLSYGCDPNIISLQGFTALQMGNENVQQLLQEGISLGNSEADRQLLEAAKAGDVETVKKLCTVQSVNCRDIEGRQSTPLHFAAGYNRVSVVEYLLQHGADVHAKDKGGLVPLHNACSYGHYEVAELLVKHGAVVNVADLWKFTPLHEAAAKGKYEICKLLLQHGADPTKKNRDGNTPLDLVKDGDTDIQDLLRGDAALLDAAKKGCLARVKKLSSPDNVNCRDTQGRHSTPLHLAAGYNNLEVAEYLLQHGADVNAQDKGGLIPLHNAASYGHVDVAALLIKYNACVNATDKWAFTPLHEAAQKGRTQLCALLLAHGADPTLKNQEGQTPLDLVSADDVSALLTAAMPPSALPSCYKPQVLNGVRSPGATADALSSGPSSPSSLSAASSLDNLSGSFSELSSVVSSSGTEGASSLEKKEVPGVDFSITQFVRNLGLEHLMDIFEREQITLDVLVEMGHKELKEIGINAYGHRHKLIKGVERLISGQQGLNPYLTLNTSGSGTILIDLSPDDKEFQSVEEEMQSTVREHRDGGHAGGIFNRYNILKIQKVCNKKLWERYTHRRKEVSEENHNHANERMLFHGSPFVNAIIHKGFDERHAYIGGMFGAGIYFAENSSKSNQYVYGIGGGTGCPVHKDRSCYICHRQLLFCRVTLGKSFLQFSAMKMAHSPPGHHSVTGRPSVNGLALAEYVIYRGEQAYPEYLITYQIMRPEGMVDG

COLO 320DM = assay: Antiproliferative activity against human COLO320DM cells assessed as inhibition of cell growth measured after 4 days by CellTiter-Glo assay; assay type: functional; conditions: 96 h
[2] = Stability in mouse liver microsomes assessed as parent compound remaining at 1 uM measured after 60 mins in presence of NADPH by LC-MS/MS analysis; assay type: ADME, Microsome; conditions: read-out: Stability
[3] = Stability in rat liver microsomes assessed as parent compound remaining at 1 uM measured after 60 mins in presence of NADPH by LC-MS/MS analysis; assay type: ADME, Microsome; conditions: read-out: Stability
[4] = Stability in human liver microsomes assessed as parent compound remaining at 1 uM measured after 30 mins in presence of NADPH by LC-MS/MS analysis; assay type: ADME, Microsome; conditions: read-out: Stability
[5] = Protein binding in mouse plasma assessed as unbound fraction at 1 uM measured after 24 hrs by LC-MS/MS analysis; assay type: ADME, cell-free
MDR1 = assay: Efflux ratio of permeability across basolateral to apical side over apical to basolateral side in MDCK2-MDR1 cells; assay type: ADME, cell-based, Canis lupus familiaris; conditions: dog, MDCK-MDR1
[6] = Net efflux ratio of permeability across basolateral to apical side over apical to basolateral side in MDCK2-MDR1 cells to MDCK2 cells; assay type: ADME, cell-based, Canis lupus familiaris; conditions: dog, mdck
[7] = Cmax in ICR mouse at 50 mg/kg, ip; assay type: ADME, organism-based; set-up: dose 50 mg/kg, route intraperitoneal; conditions: in vivo
[8] = Tmax in ICR mouse at 50 mg/kg, po; assay type: ADME, organism-based; conditions: in vivo
Tankyrase 1/2 = molecular target: T2, Tankyrase 1/2 (Homo sapiens, UniProt Q9H2K2+O95271); conditions: hek293
T2 sequence (Q9H2K2 whole entry): T1 sequence (Q9H2K2 whole entry)
T2 sequence (O95271 whole entry): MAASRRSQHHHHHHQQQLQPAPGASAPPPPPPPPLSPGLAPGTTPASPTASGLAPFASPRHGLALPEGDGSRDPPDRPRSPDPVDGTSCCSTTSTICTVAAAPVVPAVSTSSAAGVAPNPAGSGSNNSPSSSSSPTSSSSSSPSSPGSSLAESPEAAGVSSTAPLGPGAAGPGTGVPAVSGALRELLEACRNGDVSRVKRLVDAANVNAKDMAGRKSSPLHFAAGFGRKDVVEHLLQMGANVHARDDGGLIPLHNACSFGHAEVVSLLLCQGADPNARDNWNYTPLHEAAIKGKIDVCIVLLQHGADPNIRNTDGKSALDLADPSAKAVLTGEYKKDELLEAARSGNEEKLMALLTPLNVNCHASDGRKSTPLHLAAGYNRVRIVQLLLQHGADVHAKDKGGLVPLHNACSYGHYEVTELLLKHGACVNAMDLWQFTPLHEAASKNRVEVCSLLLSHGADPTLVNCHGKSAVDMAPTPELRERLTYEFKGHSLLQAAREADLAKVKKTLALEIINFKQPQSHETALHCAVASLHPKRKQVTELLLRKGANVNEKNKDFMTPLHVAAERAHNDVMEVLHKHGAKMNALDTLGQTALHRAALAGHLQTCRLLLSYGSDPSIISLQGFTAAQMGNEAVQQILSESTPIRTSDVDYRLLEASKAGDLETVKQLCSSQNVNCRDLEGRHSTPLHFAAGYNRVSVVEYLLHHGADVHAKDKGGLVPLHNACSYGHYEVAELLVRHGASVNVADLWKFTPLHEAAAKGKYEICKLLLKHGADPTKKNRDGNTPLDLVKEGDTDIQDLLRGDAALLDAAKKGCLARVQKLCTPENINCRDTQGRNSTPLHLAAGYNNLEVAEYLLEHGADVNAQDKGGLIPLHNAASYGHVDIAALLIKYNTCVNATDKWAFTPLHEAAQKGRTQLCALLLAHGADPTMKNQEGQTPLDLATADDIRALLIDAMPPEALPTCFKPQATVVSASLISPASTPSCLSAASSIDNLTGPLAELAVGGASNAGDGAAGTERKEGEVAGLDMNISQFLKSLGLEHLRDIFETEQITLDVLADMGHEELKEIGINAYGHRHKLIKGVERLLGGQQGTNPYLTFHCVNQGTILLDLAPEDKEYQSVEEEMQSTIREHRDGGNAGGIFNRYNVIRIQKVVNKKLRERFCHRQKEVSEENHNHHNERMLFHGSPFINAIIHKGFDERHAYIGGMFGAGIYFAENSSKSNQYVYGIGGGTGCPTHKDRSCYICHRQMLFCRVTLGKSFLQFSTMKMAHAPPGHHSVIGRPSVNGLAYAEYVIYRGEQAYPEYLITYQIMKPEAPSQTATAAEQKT
Description: Inhibition of TNKS/TNKS2 (unknown origin) expressed in HEK293 cells assessed as reduction in Wnt-signaling measured after 24 hrs by TCF-luciferase reporter gene assay

| IC50 [1] [nM] | GI50 (COLO 320DM) [nM] | remaining at 1 h, 1 µM [2] [%] | remaining at 1 h, 1 µM [3] [%] | remaining at 0.5 h, 1 µM [4] [%] | fraction unbound at 24 h, 1 µM [5] | efflux ratio (MDR1) | Ratio [6] | Cmax [7] [µM] | Tmax [8] [min] | IC50 (Tankyrase 1/2) [nM] | Structure (SMILES) |
| --- | --- | --- | --- | --- | --- | --- | --- | --- | --- | --- | --- |
| 12.3 | 190 | 30.5 to 54.5 | 65.3 | 72.7 | 0.019 | 13.2 | 4.3 | 53.6 | 15 | 0.9 | CN1CCN(c2cc(F)c3c(c2)N(C)C(=O)C32CCN(c3nc4c(c(=O)[nH]3)CCCN4C)CC2)CC1 |
| 39.2 | 230 | 28.7 to 55.9 | 44 | 73 | 0.006 | 1 | 1.1 | 102 | 60 | 0.3 | C[C@@H]1CN(c2cc(F)c3c(c2)N(C)C(=O)C32CCN(c3nc4c(c(=O)[nH]3)CCCN4C)CC2)C[C@H](C)O1 |
